Assay results published in ChEMBL document CHEMBL4043166, “Triazole tethered isatin-coumarin based molecular hybrids as novel antitubulin agents: Design, synthesis, biological investigation and docking studies” (Bioorg Med Chem Lett, 2017).
The source made the active and inactive calls. The calls are words filed in the database; no cut-off is given here.

How the values were obtained:
Homo sapiens = species on record: Homo sapiens; test: Inhibition of tubulin polymerization in human THP1 cells assessed as disrupted microtubule formation at 1 uM after 48 hrs by confocal microscopic analysis; format: cell-based
THP-1 [1] = test: Cytotoxicity against human THP1 cells assessed as growth inhibition at 50 uM after 48 hrs by SRB assay relative to control; format: functional; details: THP-1, 48 h, read-out: GI
HCT-116 [2] = test: Cytotoxicity against human HCT116 cells assessed as growth inhibition at 50 uM after 48 hrs by SRB assay relative to control; format: functional; details: HCT-116, 48 h, read-out: GI
PC-3 = test: Cytotoxicity against human PC3 cells assessed as growth inhibition at 50 uM after 48 hrs by SRB assay relative to control; format: functional; details: PC-3, 48 h, read-out: GI
COLO 205 [3] = test: Cytotoxicity against human COLO205 cells assessed as growth inhibition at 50 uM after 48 hrs by SRB assay relative to control; format: functional; details: COLO 205, 48 h, read-out: GI
THP-1 [4] = test: Cytotoxicity against human THP1 cells assessed as cell growth inhibition after 48 hrs by SRB assay; format: functional, cell-based; details: THP-1, 48 h
COLO 205 [5] = test: Cytotoxicity against human COLO205 cells assessed as cell growth inhibition after 48 hrs by SRB assay; format: functional, cell-based; details: COLO 205, 48 h
HCT-116 [6] = test: Cytotoxicity against human HCT116 cells assessed as cell growth inhibition after 48 hrs by SRB assay; format: functional, cell-based; details: HCT-116, 48 h
[7] = Inhibition of tubulin (unknown origin) polymerization; design: species or system Homo sapiens

Compound: CC(=O)O[C@H]1C(=O)[C@@]2(C)[C@H]([C@H](OC(=O)c3ccccc3)[C@]3(O)C[C@H](OC(=O)[C@H](O)[C@@H](NC(=O)c4ccccc4)c4ccccc4)C(C)=C1C3(C)C)[C@]1(OC(C)=O)CO[C@@H]1C[C@@H]2O
- inhibition (Homo sapiens): Active

Compound: O=C1C(=O)N(CCCn2cc(COc3cc(=O)oc4ccccc34)nn2)c2ccc(I)cc21
- inhibition of growth at 50 µM (THP-1 [1]): 67%
- inhibition of growth at 50 µM (HCT-116 [2]): 65%
- inhibition of growth at 50 µM (PC-3): 14%
- inhibition of growth at 50 µM (COLO 205 [3]): 56%

Compound: COc1ccc2c(c1)C(=O)C(=O)N2CCCn1cc(COc2cc(=O)oc3ccccc23)nn1
- inhibition of growth at 50 µM (THP-1 [1]): 56%
- inhibition of growth at 50 µM (HCT-116 [2]): 52%
- inhibition of growth at 50 µM (PC-3): 9%
- inhibition of growth at 50 µM (COLO 205 [3]): 48%

Compound: O=C1C(=O)N(CCCn2cc(COc3cc(=O)oc4ccccc34)nn2)c2ccc(F)cc21
- IC50 (THP-1 [4]): 5.76 µM
- inhibition of growth at 50 µM (THP-1 [1]): 86%
- inhibition of growth at 50 µM (HCT-116 [2]): 75%
- inhibition of growth at 50 µM (PC-3): 20%
- IC50 (COLO 205 [5]): 8.88 µM
- IC50 (HCT-116 [6]): 7.26 µM
- inhibition of growth at 50 µM (COLO 205 [3]): 69%

Compound: COc1ccc2c(c1)C(=O)C(=O)N2CCn1cc(COc2cc(=O)oc3ccccc23)nn1
- inhibition of growth at 50 µM (THP-1 [1]): 68%
- inhibition of growth at 50 µM (HCT-116 [2]): 65%
- inhibition of growth at 50 µM (PC-3): 14%
- inhibition of growth at 50 µM (COLO 205 [3]): 53%

Compound: O=C1C(=O)N(CCCCn2cc(COc3cc(=O)oc4ccccc34)nn2)c2ccc(Br)cc21
- inhibition of growth at 50 µM (THP-1 [1]): 63%
- inhibition of growth at 50 µM (HCT-116 [2]): 59%
- inhibition of growth at 50 µM (PC-3): 13%
- inhibition of growth at 50 µM (COLO 205 [3]): 56%

Compound: COc1ccc2c(c1)C(=O)C(=O)N2CCCCCn1cc(COc2cc(=O)oc3ccccc23)nn1
- inhibition of growth at 50 µM (THP-1 [1]): 30%
- inhibition of growth at 50 µM (HCT-116 [2]): 25%
- inhibition of growth at 50 µM (COLO 205 [3]): 19%

Compound: O=C1C(=O)N(CCCn2cc(COc3cc(=O)oc4ccccc34)nn2)c2ccccc21
- IC50 (THP-1 [4]): 5.03 µM
- inhibition of growth at 50 µM (THP-1 [1]): 93%
- inhibition of growth at 50 µM (HCT-116 [2]): 79%
- inhibition of growth at 50 µM (PC-3): 25%
- IC50 [7]: 6.32 µM
- IC50 (COLO 205 [5]): 5.71 µM
- IC50 (HCT-116 [6]): 5.18 µM
- inhibition of growth at 50 µM (COLO 205 [3]): 75%

Compound: O=C1C(=O)N(CCn2cc(COc3cc(=O)oc4ccccc34)nn2)c2ccc([N+](=O)[O-])cc21
- IC50 (THP-1 [4]): 8.57 µM
- inhibition of growth at 50 µM (THP-1 [1]): 71%
- inhibition of growth at 50 µM (HCT-116 [2]): 68%
- inhibition of growth at 50 µM (PC-3): 15%
- IC50 (COLO 205 [5]): 13 µM
- IC50 (HCT-116 [6]): 9.54 µM
- inhibition of growth at 50 µM (COLO 205 [3]): 59%

Compound: COc1ccc2c(c1)C(=O)C(=O)N2CCCCn1cc(COc2cc(=O)oc3ccccc23)nn1
- inhibition of growth at 50 µM (THP-1 [1]): 52%
- inhibition of growth at 50 µM (HCT-116 [2]): 48%
- inhibition of growth at 50 µM (COLO 205 [3]): 41%

Compound: O=C1C(=O)N(CCCCCn2cc(COc3cc(=O)oc4ccccc34)nn2)c2ccc(Cl)cc21
- inhibition of growth at 50 µM (THP-1 [1]): 59%
- inhibition of growth at 50 µM (HCT-116 [2]): 52%
- inhibition of growth at 50 µM (COLO 205 [3]): 48%

Compound: O=C1C(=O)N(CCCCn2cc(COc3cc(=O)oc4ccccc34)nn2)c2ccc(I)cc21
- inhibition of growth at 50 µM (THP-1 [1]): 59%
- inhibition of growth at 50 µM (HCT-116 [2]): 57%
- inhibition of growth at 50 µM (PC-3): 10%
- inhibition of growth at 50 µM (COLO 205 [3]): 50%

Compound: O=C1C(=O)N(CCCCCn2cc(COc3cc(=O)oc4ccccc34)nn2)c2ccc(Br)cc21
- inhibition of growth at 50 µM (THP-1 [1]): 52%
- inhibition of growth at 50 µM (HCT-116 [2]): 43%
- inhibition of growth at 50 µM (COLO 205 [3]): 39%

Compound: O=C1C(=O)N(CCCn2cc(COc3cc(=O)oc4ccccc34)nn2)c2ccc(Cl)cc21
- IC50 (THP-1 [4]): 6.99 µM
- inhibition of growth at 50 µM (THP-1 [1]): 78%
- inhibition of growth at 50 µM (HCT-116 [2]): 68%
- inhibition of growth at 50 µM (PC-3): 18%
- IC50 (COLO 205 [5]): 10.7 µM
- IC50 (HCT-116 [6]): 9.66 µM
- inhibition of growth at 50 µM (COLO 205 [3]): 67%

Compound: O=C1C(=O)N(CCCCCn2cc(COc3cc(=O)oc4ccccc34)nn2)c2ccc([N+](=O)[O-])cc21
- inhibition of growth at 50 µM (THP-1 [1]): 37%
- inhibition of growth at 50 µM (HCT-116 [2]): 29%
- inhibition of growth at 50 µM (COLO 205 [3]): 23%
